Measurements as given in PMC11212140, “Molecular Bidents with Two Electrophilic Warheads as a New Pharmacological Modality” (ACS Central Science, 2024).

Columns and labels:
CHED = test system: T1, CHED; test: KiNativ profiling in H3255 cells; assay type: cell-based, human; conditions: 2.5 µM; Lys2; DIKCSNILLNNR
T1 construct: purchased ActivX Biosciences (KiNativ)

[1] = test system: EGFR^L858R/C775S Ba/F3 cells; test: Antiproliferation assay (CellTiter-Glo); assay type: cell-based; conditions: vs EGFR^L858R Ba/F3
Protocol: Figure S6 Dose-response curves for the indicated compounds in EGFRL858R, EGFRL858R/C797S, and EGFRL858R/C775S Ba/F3 cells following 72 h of treatment. Cell viability was assessed with CellTiter-Glo.
Data are presented as the mean ± SEM (n = 4). Representative data from three independent experiments
(§1) (1 picture or pasted object on this page, not shown here)
For infection of Ba/F3 cells, 2.5 mL of viral supernatant and 8 μg/mL polybrene was added to 2.5 million cells per well in six-well plates. The plate was centrifuged at 2500 rpm for 90 minutes at 37 °C for the spin infection. Then, virus-containing medium was removed 48 hours later and successfully infected cells were selected with the addition of 1 μg/mL puromycin to the medium.
After 3 days, cells were transferred into the fresh medium without IL-3 and puromycin. IL-3-independent transformed cells were maintained in RPMI medium 1640 supplemented with 10%
FBS. Expression of EGFR was examined by Western blot.
Immunoblotting and antibodies
(§2) Cells were lysed in RIPA buffer (150 mM NaCl, 1.0% IGEPAL® CA-630, 0.5% sodium deoxycholate, 0.1% SDS, 50 mM Tris, pH 8.0) (Sigma, Cat# R0278) with protease inhibitor and phosphatase inhibitor (Roche). The protein concentrations were measured by BCA analysis (Thermo Fisher Scientific, Cat # PI23225). […]
(§3) or IRDye 680RD goat anti-Mouse IgG (LICOR Biosciences , Cat # 926-68070) secondary antibodies at room temperature for 1 hour. The membranes were detected on Odyssey CLx system. […]
treatment. Cell viability was determined by using CellTiter-Glo (Promega #G7571) according to the manufacturer’s instructions, measuring luminescence using an Envision plate-reader (PerkinElmer Inc.). […]
After 6 hours treatment, cells were pelleted, washed with PBS once and lysed with IP lysis buffer (25mMTris-HCl pH 7.4, 150mM NaCl, 1 mM EDTA, 1% NP-40 and 5% glycerol) (Thermo Fisher Scientific, Cat#87788) containing protease/phosphatase inhibitor cocktail (Roche). The protein concentrations were measured by BCA analysis (Pierce). […]

[2] = test system: phosphorylation of EGFR, ERK1/2, and AKT; test: Immunoblot of EGFR signaling pathway in H3255 cells; assay type: cell-based, human; conditions: H3255, 6 h treatment
Protocol: (A) Dose–response curves for ZNL-0056 and osimertinib in H3255 cells following 72 h of treatment. Cell viability was assessed with CellTiter-Glo. Data are presented as the mean ± SEM (n = 4). Representative data from three independent experiments are shown. (B) Immunoblot assessment of the effect of ZNL-0056 on EGFR signaling pathway in H3255 cells after 6 h treatment. Representative blots from two independent experiments are shown. […] TEXT PRINTED IN THE PICTURE: (A) ZNL-0056: H3255: IC50 (nM): 471.3 | (A) Osimertinib: H3255: IC50 (nM): 27.76 […]
(§4) For infection of Ba/F3 cells, 2.5 mL of viral supernatant and 8 μg/mL polybrene was added to 2.5 million cells per well in six-well plates. The plate was centrifuged at 2500 rpm for 90 minutes at 37 °C for the spin infection. […]
as §2, §3

[3] = test system: EGFR, ERK1/2, and Akt phosphorylation; test: Immunoblot of EGFR signaling pathway in EGFR-mutated Ba/F3 cells; assay type: cell-based; conditions: EGFR^L858R, EGFR^L858R/C797S and EGFR^L858R/C775S Ba/F3 cells, 6 h
Protocol: Figure 5 ZNL-0056 covalently engages Cys775 and Cys797 in EGFR Ba/F3 cells. (A) The average IC50 values (mean ± S.D.) of the indicated compounds in EGFR^L858R Ba/F3, EGFR^L858R/C797S Ba/F3, and EGFR^L858R/C775S Ba/F3 cells after […] treatment. The graph was generated from three independent experiments, each performed with four replicates. (B) Immunoblot assessment of the effect of ZNL-0056 on the EGFR signaling pathway in EGFR^L858R Ba/F3, EGFR^L858R/C797S Ba/F3, and EGFR^L858R/C775S Ba/F3 cells after 6 h treatment. Representative data from two independent experiments are shown.
as §4, §2, §3

BLK = BLK (Homo sapiens, UniProt P51451); test: Z'-LYTE biochemical assay; conditions: read-out: IC50 (nM) against BLK
BLK, sequence (P51451 whole entry): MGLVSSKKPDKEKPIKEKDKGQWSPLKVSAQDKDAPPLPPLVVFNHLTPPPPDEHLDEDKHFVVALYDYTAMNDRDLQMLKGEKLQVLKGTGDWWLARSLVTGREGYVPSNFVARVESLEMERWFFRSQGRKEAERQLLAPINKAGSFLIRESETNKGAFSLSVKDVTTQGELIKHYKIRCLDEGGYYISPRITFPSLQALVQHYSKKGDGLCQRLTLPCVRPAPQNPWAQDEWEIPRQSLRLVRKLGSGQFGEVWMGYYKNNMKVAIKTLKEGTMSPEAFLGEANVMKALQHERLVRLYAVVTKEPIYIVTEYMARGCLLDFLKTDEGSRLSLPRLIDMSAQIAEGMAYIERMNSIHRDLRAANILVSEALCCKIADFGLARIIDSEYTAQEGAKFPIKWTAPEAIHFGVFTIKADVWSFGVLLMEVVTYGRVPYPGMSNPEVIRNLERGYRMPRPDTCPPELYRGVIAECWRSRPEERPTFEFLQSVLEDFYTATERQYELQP
Source text: Table S2. Biochemical activities against a panel of kinase targets […]
aIC50 (nM) against EGFR L858R, BTK, JAK3, ITK and BLK were obtained with Z’-LYTE biochemical assay. bIC50 (nM) against MEK5 was obtained with LanthaScreen Binding activity assay. c Kd (nM) of MKK7 were obtained from KdELECT assays (DiscoverX). […]
as §1

[4] = test system: panel of 468 human kinases; conditions: 1 μM
Protocol: KinomeScan profiling for ZNL-0056 at 1 μM against a panel of 468 human kinases. The results
for the binding interactions are reported as “% Ctrl”, where larger circles indicate stronger hits.
The selectivity score was defined as the ratio of the number of kinases inhibited to a specified
percentage versus the total number of kinases. For this experiment, specified percent inhibition

Structure (SMILES) | Inhibition (CHED) [%] | potency loss (shift) in the EGFR^L858R/C775S mutant [1] [fold] | concentration inhibiting phosphorylation of EGFR, ERK1/2, and AKT (as low as) [2] [µM] | inhibition of EGFR, ERK1/2, and Akt phosphorylation [3] | IC50 (BLK) [nM] | selectivity score S (10) [4]
C=CC(=O)Nc1cc(Nc2nccc(-c3cn(C)c4ccccc34)n2)c(OC)cc1N(C)CCN(C)C [Osimertinib, osimertinib, reference compound] | 28.0 | – | – | – | – | –
C=CC(=O)Nc1cc(C(=O)Nc2nc3cccc(C)c3n2[C@@H]2CCCCN(C(=O)C=C)C2)cs1 [ZNL-0056] | – | 2 | 0.1 | significantly inhibited | 3.17 | 0.05
